Experimental data as given in US20200392150A1, “Diaryl-B-Lactam Compound and Preparation Method and Pharmaceutical Use Thereof” (Fudan University, priority 2016, published 2020).
Counter-ions that a name gives are not always drawn.

Assays:
[1] = test system: Hela; assay: In vitro cell growth inhibition assay (MTT); type: cell-based, human; settings: Hela human cervical cancer cell line, 48 h, MTT; read-out: IC50 Hela
Experimental: (§1) 5000 tumor cells per well were seeded into 96-well plate and allowed to adhere overnight. Cells were treated with various concentrations of tested compounds or DMSO (0.2%, as negative control) for 48 h. Then, the medium along with tested compounds or DMSO was discarded and […] per well MTT containing medium (0.5 mg/mL) was added. After incubation at 37° C. for 4 h, the MTT-containing medium was replaced by DMSO (150 μL per well) to dissolve the formazan crystals. Absorbance of the resulting solution was measured by microplate reader (Biotech ELx800) at 540 nm wavelength. Growth inhibition rates were calculated with the absorbance. Half maximal inhibitory concentration (IC50) of each compound was calculated using GraphPad Prism, version 6.0.

[2] = test system: MDA-MB-231; assay: In vitro cell growth inhibition assay (MTT); type: cell-based, human; settings: MDA-MB-231 human breast cancer cell line, 48 h, MTT; read-out: IC50 MDA-MB-231
Experimental: as §1

[3] = test system: SKOV3; assay: In vitro cell growth inhibition assay (MTT); type: cell-based, human; settings: SK-OV-3; SKOV-3 human ovarian cancer cell line, 48 h, MTT; read-out: IC50 SKOV3
Experimental: as §1

[4] = test system: A2780; assay: In vitro cell growth inhibition assay (MTT); type: cell-based, human; settings: A2780 human ovarian cancer cell line, 48 h, MTT; read-out: IC50 A2780
Experimental: as §1

Row | SMILES | melting point [°C] | IC50 [1] [nM] | IC50 [2] [nM] | IC50 [3] [nM] | IC50 [4] [nM]
1 | C=C1C(=O)N(c2cc(OC)c(OC)c(OC)c2)[C@H]1c1ccc(OC)c(OS(=O)(=O)c2ccc(C)cc2)c1 (as salt: benzenesulfonate) [Compound 27, (S)-2-methoxy-5-(3-methylene-4-oxo-1-(3,4,5-trimethoxyphenyl)azetidin-2-yl)phenyl 4-methylbenzenesulfonate] | 162 to 163 | – | – | – | –
2 | C=C1C(=O)N(c2cc(OC)c(OC)c(OC)c2)[C@H]1c1ccc(OC)c(OS(=O)(=O)c2ccc(NC(C)=O)cc2)c1 (as salt: benzenesulfonate) [Compound 30, (S)-2-methoxy-5-(3-methylene-4-oxo-1-(3,4,5-trimethoxyphenyl)azetidin-2-yl)phenyl 4-acetamidobenzenesulfonate] | 87 to 88 | – | – | – | –
3 | COc1ccc([C@H]2[C@@H](OC(=O)CCC(=O)O)C(=O)N2c2cc(OC)c(OC)c(OC)c2)cc1O [Compound 64, 4-(((2S,3R)-2-(3-hydroxy-4-methoxyphenyl)-4-oxo-1-(3,4,5-trimethoxyphenyl)azetidin-3-yl)oxy)-4-oxobutanoic acid] | – | 178 | 102 | 210 | 79
4 | CCOC(=O)CO[C@H]1C(=O)N(c2cc(OC)c(OC)c(OC)c2)[C@H]1c1ccc(OC)c(O)c1 [Compound 65, ethyl 2-(((2S,3R)-2-(3-hydroxy-4-methoxyphenyl)-4-oxo-1-(3,4,5-trimethoxyphenyl)azetidin-3-yl)oxy)acetate] | – | 669 | 672 | 721 | 423
5 | COc1ccc([C@H]2[C@H](Br)C(=O)N2c2cc(OC)c(OC)c(OC)c2)cc1O [Compound 66, (3S,4S)-3-bromo-4-(3-hydroxy-4-methoxyphenyl)-1-(3,4,5-trimethoxyphenyl)azetidin-2-one] | – | 13 | 10 | 9 | 8
6 | COc1ccc([C@H]2CC(=O)N2c2cc(OC)c(OC)c(OC)c2)cc1O [Compound 67, (R)-4-(3-hydroxy-4-methoxyphenyl)-1-(3,4,5-trimethoxyphenyl)azetidin-2-one] | – | 30 | 28 | 24 | 22
7 | COc1ccc([C@H]2[C@H](NC(C)=O)C(=O)N2c2cc(OC)c(OC)c(OC)c2)cc1O [Compound 77, N-((2S,3S)-2-(3-hydroxy-4-methoxyphenyl)-4-oxo-1-(3,4,5-trimethoxyphenyl)azetidin-3-yl)acetamide] | – | 35 | 47 | 32 | 33
8 | COc1ccc([C@H]2[C@H](NC(=O)c3ccccc3)C(=O)N2c2cc(OC)c(OC)c(OC)c2)cc1O [Compound 78, N-((2S,3S)-2-(3-hydroxy-4-methoxyphenyl)-4-oxo-1-(3,4,5-trimethoxyphenyl)azetidin-3-yl)benzamide] | – | 24 | 47 | 45 | 27
9 | COc1ccc([C@H]2[C@H](NS(C)(=O)=O)C(=O)N2c2cc(OC)c(OC)c(OC)c2)cc1O [Compound 79, N-((2S,3S)-2-(3-hydroxy-4-methoxyphenyl)-4-oxo-1-(3,4,5-trimethoxyphenyl)azetidin-3-yl)methanesulfonamide] | – | 192 | 254 | 231 | 164
10 | COc1ccc([C@@H]2N(c3cc(OC)c(OC)c(OC)c3)C(=O)[C@]2(O)CO)cc1O [Compound 80, (3R,4S)-3-hydroxy-4-(3-hydroxy-4-methoxyphenyl)-3-(hydroxymethyl)-1-(3,4,5-trimethoxyphenyl)azetidin-2-one] | – | 3420 | 4470 | 3000 | 1770
11 | COC[C@@]1(OC)C(=O)N(c2cc(OC)c(OC)c(OC)c2)[C@H]1c1ccc(OC)c(O)c1 [Compound 81, (3R,4S)-4-(3-hydroxy-4-methoxyphenyl)-3-methoxy-3-(methoxymethyl)-1-(3,4,5-trimethoxyphenyl)azetidin-2-one] | – | 2560 | 2650 | 2470 | 1750
12 | C=C1C(=O)N(c2cc(OC)c(OC)c(OC)c2)[C@H]1c1cccc(O)c1 [Compound 85, (S)-4-(3-hydroxyphenyl)-3-methylene-1-(3,4,5-trimethoxyphenyl)azetidin-2-one] | – | 15000 | 6640 | 14500 | 10500
13 | C=C1C(=O)N(c2cc(OC)c(OC)c(OC)c2)[C@H]1c1cccc(OC)c1 [Compound 86, (S)-4-(3-methoxyphenyl)-3-methylene-1-(3,4,5-trimethoxyphenyl)azetidin-2-one] | – | 12300 | 6320 | 8180 | 2290
14 | C=C1C(=O)N(c2cc(OC)c(OC)c(OC)c2)[C@H]1c1ccc(C)cc1 [Compound 87, (S)-3-methylene-4-(p-tolyl)-1-(3,4,5-trimethoxyphenyl)azetidin-2-one] | – | 209 | 193 | 265 | 127
15 | C=C1C(=O)N(c2cc(OC)c(OC)c(OC)c2)[C@H]1c1ccc(C(C)C)cc1 [Compound 88, (S)-4-(4-isopropylphenyl)-3-methylene-1-(3,4,5-trimethoxyphenyl)azetidin-2-one] | – | 2210 | 2550 | 2470 | 2120
16 | C=C1C(=O)N(c2cc(OC)c(OC)c(OC)c2)[C@H]1c1ccc(OC)c(OC(=O)c2ccc(OC)cc2)c1 [Compound 96, (S)-2-methoxy-5-(3-methylene-4-oxo-1-(3,4,5-trimethoxyphenyl)azetidin-2-yl)phenyl 4-methoxybenzoate] | – | 139 | 284 | 258 | 125
17 | C=C1C(=O)N(c2cc(OC)c(OC)c(OC)c2)[C@@H]1c1ccc(OC)c(O)c1 [Compound 98, (R)-4-(3-hydroxy-4-methoxyphenyl)-3-methylene-1-(3,4,5-trimethoxyphenyl)azetidin-2-one] | – | > 20000 | > 20000 | > 20000 | > 20000
18 | COc1ccc([C@@H]2[C@H](C)C(=O)N2c2cc(OC)c(OC)c(OC)c2)cc1O [Compound 101, (3S,4S)-4-(3-hydroxy-4-methoxyphenyl)-3-methyl-1-(3,4,5-trimethoxyphenyl)azetidin-2-one] | – | 3920 | 5140 | 3270 | 5750
19 | COc1ccc([C@@H]2[C@@H](C)C(=O)N2c2cc(OC)c(OC)c(OC)c2)cc1O [Compound 102, (3R,4S)-4-(3-hydroxy-4-methoxyphenyl)-3-methyl-1-(3,4,5-trimethoxyphenyl)azetidin-2-one] | – | 807 | 1080 | 650 | 771
20 | COc1ccc([C@H]2[C@@H](C)C(=O)N2c2cc(OC)c(OC)c(OC)c2)cc1N [Compound 103, (3R,4R)-4-(3-amino-4-methoxyphenyl)-3-methyl-1-(3,4,5-trimethoxyphenyl)azetidin-2-one] | – | 61 | 81 | 77 | 78
21 | COc1ccc([C@H]2[C@H](C)C(=O)N2c2cc(OC)c(OC)c(OC)c2)cc1N [Compound 104, (3S,4R)-4-(3-amino-4-methoxyphenyl)-3-methyl-1-(3,4,5-trimethoxyphenyl)azetidin-2-one] | – | 37 | 32 | 25 | 20
22 | COc1ccc([C@@H]2N(c3cc(OC)c(OC)c(OC)c3)C(=O)C23CC3)cc1O [Compound 105, (S)-6-(3-hydroxy-4-methoxyphenyl)-5-(3,4,5-trimethoxyphenyl)-5-azaspiro[2.3]hexan-4-one] | – | 436 | 326 | 388 | 302
23 | CC[C@H]1C(=O)N(c2cc(OC)c(OC)c(OC)c2)[C@H]1c1ccc(OC)c(O)c1 [Compound 106, (3R,4R)-3-ethyl-4-(3-hydroxy-4-methoxyphenyl)-1-(3,4,5-trimethoxyphenyl)azetidin-2-one] | – | 320 | 286 | 215 | 250
24 | C=C1C(=O)N(c2cc(OC)c(OC)c(OC)c2)[C@H]1c1ccc(OC)c(OS(=O)(=O)F)c1 [Compound 107, (S)-2-methoxy-5-(3-methylene-4-oxo-1-(3,4,5-trimethoxyphenyl)azetidin-2-yl)phenyl sulfofluoridate] | – | 174 | 216 | 178 | 121
25 | COc1ccc([C@H]2[C@@H](C)C(=O)N2c2cc(OC)c(OC)c(OC)c2)cc1OS(=O)(=O)F [Compound 108, 2-methoxy-5-((2R,3R)-3-methyl-4-oxo-1-(3,4,5-trimethoxyphenyl)azetidin-2-yl)phenyl sulfofluoridate] | – | 54 | 40 | 62 | 35
26 | COc1ccc([C@H]2[C@H](C)C(=O)N2c2cc(OC)c(OC)c(OC)c2)cc1OS(=O)(=O)F [Compound 109, 2-methoxy-5-((2R,3S)-3-methyl-4-oxo-1-(3,4,5-trimethoxyphenyl)azetidin-2-yl)phenyl sulfofluoridate] | – | 51 | 23 | 34 | 21
